Assays:
Test in all cases: biochemical
PERK = biological target: T1, PERK (Homo sapiens, UniProt Q9NZJ5); parameters: 33P incorporation kinase assay (Reaction Biology), myelin basic protein substrate; conditions: 10 uM ATP
T1 construct: gene EIF2AK3
T1 sequence (Q9NZJ5 1-1116): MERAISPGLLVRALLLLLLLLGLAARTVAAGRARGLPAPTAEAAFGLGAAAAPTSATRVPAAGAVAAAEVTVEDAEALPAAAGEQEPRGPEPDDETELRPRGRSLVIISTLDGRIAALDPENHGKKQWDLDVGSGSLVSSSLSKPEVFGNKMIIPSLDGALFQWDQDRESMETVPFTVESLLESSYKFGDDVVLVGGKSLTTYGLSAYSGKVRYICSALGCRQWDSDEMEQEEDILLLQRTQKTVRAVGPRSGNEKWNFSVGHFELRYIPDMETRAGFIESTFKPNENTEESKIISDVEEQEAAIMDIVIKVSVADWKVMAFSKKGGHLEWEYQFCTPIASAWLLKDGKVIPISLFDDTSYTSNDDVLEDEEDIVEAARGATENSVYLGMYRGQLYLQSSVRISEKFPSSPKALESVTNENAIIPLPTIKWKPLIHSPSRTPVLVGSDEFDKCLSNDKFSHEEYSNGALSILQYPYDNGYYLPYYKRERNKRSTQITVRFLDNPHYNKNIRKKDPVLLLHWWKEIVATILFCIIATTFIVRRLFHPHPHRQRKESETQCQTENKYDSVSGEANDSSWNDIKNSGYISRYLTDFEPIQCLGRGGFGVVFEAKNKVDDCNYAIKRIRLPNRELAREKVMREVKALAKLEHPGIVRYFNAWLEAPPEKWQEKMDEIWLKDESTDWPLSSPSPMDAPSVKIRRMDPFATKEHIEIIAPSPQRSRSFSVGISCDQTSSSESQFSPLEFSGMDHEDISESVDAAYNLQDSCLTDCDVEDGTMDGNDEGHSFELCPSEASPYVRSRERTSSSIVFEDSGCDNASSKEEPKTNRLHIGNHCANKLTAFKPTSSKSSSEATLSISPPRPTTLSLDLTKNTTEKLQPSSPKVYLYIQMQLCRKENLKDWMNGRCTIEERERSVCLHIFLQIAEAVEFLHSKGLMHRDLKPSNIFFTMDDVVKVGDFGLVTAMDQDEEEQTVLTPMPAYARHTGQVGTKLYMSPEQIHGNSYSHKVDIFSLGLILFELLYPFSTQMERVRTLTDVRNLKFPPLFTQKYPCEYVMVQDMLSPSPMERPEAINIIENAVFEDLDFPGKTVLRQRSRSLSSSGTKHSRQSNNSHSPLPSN
Description: We set out to identify allosteric activators of IRE1 RNase by screening internal compound libraries for binding to the kinase, using a published ATP-competitive TR-FRET assay. We then tested kinase binders to assess RNase modulation in an IRE1-specific kinetic RNA cleavage assay that uses the cytoplasmic construct IRE1-LKR (Q470-L977) (Supplementary Fig. 1a). […] Next, we tested these compounds in KMS-11 multiple myeloma cells, known to express functional IRE1 and strongly depend on the IRE1 pathway due to hyper-production of immunoglobulins in the ER[31]. We measured mRNA levels of XBP1s and the well-established RIDD target DGAT2[22] (Fig. 1c and Supplementary Fig. 1c, respectively) using a branched DNA (bDNA) assay. […] Importantly, neither G-9807 nor G-1749 inhibit PERK (Supplementary Table 1).

Flt3 = biological target: T2, Flt3 (Homo sapiens, UniProt P36888); parameters: Invitrogen kinase panel: Z'Lyte activity (ATP at Km) or LanthaScreen competitive ATP-site binding, percent inhibition
T2 sequence (P36888 1-993): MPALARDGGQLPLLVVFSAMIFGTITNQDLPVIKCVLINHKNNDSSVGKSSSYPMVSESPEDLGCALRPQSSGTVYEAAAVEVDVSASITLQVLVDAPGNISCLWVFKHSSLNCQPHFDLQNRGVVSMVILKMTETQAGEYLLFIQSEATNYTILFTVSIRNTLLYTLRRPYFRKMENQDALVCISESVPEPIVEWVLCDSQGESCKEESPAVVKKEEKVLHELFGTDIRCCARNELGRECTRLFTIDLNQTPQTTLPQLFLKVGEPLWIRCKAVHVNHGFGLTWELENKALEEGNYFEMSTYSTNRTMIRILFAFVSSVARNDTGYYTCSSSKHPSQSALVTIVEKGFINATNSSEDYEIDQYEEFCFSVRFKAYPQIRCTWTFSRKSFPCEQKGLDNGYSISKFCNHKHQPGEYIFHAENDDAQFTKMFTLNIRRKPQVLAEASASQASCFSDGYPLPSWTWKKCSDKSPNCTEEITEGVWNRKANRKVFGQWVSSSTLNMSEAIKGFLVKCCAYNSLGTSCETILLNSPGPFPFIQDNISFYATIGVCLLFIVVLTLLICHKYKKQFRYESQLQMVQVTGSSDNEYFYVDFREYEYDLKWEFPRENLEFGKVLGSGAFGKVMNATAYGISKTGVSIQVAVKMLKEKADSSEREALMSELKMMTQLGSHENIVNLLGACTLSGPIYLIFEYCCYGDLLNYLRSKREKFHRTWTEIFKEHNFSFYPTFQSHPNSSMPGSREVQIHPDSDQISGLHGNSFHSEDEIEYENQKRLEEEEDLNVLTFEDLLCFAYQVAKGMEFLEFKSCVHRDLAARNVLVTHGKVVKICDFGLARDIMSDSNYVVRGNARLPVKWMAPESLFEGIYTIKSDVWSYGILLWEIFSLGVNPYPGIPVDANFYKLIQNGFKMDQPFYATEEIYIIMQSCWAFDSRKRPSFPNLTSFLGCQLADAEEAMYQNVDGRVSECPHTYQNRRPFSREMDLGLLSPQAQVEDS

Syk = Syk (Homo sapiens, UniProt P43405); parameters: Invitrogen kinase panel: Z'Lyte activity (ATP at Km) or LanthaScreen competitive ATP-site binding, percent inhibition
PRKAA1 = PRKAA1 (Homo sapiens, UniProt Q13131); parameters: Invitrogen kinase panel: Z'Lyte activity (ATP at Km) or LanthaScreen competitive ATP-site binding, percent inhibition
Brk = biological target: T3, Brk (Homo sapiens, UniProt Q13882); parameters: Invitrogen kinase panel: Z'Lyte activity (ATP at Km) or LanthaScreen competitive ATP-site binding, percent inhibition
T3 construct: gene PTK6

EphA7 = EphA7 (Homo sapiens, UniProt Q15375); parameters: Invitrogen kinase panel: Z'Lyte activity (ATP at Km) or LanthaScreen competitive ATP-site binding, percent inhibition
Sequence of EphA7 (Q15375 whole entry): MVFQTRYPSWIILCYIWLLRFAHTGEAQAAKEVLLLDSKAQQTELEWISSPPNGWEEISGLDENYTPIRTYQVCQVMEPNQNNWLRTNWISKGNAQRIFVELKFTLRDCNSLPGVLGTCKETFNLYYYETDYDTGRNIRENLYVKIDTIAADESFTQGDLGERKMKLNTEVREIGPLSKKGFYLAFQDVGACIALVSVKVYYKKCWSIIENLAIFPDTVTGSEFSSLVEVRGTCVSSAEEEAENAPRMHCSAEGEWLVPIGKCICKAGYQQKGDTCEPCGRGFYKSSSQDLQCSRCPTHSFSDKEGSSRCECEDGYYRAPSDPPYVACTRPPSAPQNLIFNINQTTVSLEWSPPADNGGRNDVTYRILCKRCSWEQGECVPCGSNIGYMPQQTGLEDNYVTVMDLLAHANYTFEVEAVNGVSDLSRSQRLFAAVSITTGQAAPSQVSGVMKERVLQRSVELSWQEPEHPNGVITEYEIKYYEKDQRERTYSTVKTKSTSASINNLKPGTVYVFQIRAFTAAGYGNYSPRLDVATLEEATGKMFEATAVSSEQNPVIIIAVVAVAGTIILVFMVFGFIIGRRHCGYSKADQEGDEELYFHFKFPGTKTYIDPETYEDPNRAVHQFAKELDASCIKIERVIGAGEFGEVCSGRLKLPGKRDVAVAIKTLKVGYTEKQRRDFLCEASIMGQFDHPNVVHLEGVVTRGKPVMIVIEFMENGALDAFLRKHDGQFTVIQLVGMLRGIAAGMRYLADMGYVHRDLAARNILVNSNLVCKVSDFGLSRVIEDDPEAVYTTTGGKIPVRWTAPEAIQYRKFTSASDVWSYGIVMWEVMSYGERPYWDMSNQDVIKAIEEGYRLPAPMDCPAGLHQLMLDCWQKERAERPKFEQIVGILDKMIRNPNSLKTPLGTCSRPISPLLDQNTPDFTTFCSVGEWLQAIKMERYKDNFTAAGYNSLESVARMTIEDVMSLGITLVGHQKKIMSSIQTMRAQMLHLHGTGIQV

Sequence of PRKAA1 (Q13131 whole entry): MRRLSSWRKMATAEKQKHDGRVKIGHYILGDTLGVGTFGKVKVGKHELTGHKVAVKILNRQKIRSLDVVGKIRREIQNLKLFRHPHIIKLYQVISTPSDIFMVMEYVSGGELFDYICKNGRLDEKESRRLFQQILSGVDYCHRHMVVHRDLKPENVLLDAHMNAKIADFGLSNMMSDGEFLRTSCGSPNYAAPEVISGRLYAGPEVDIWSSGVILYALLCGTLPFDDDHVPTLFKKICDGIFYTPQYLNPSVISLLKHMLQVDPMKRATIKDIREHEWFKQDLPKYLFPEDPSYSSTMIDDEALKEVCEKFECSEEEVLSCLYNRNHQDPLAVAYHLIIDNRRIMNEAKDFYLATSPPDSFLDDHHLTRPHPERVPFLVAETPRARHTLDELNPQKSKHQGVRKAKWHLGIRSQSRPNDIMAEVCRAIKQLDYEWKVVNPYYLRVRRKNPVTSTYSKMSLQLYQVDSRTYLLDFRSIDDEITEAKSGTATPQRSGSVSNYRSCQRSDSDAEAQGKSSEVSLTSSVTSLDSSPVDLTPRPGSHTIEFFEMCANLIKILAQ
Sequence of PRKAA1 (P54619 whole entry partner): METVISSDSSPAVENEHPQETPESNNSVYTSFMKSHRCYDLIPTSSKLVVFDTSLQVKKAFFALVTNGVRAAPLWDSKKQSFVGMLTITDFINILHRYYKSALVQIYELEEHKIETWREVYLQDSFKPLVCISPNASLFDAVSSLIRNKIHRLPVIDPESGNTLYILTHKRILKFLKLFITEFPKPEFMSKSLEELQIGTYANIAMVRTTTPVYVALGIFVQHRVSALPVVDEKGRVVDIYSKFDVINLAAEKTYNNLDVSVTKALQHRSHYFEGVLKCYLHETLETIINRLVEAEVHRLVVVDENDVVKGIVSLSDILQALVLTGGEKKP
Sequence of PRKAA1 (Q9Y478 whole entry partner): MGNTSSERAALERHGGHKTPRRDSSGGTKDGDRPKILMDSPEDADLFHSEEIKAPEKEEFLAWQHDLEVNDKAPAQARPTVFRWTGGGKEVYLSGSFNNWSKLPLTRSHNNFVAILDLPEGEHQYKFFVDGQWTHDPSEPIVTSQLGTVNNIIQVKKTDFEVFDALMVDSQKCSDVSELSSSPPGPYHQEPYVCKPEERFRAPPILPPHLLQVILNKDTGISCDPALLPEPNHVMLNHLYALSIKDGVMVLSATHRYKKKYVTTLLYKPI
T3 sequence (Q13882 whole entry): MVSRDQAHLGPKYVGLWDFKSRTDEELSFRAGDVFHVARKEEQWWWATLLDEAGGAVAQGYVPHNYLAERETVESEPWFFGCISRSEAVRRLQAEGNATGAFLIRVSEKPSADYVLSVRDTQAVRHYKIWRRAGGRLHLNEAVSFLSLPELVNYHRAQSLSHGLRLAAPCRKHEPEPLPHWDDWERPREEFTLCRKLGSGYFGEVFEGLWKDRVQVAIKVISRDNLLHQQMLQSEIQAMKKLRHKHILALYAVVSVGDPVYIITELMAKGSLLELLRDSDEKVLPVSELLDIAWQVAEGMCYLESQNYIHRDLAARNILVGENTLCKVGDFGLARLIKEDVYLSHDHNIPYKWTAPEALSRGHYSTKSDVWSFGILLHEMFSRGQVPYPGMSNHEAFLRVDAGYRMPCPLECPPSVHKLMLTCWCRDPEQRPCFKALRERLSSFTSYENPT

inhibition at 1 µM (PERK) [%] | inhibition at 1 µM (Flt3) [%] | inhibition at 1 µM (Syk) [%] | inhibition at 1 µM (PRKAA1) [%] | inhibition at 1 µM (Brk) [%] | inhibition at 1 µM (EphA7) [%] | Structure (SMILES)
5.4 |  |  |  |  |  | Cc1ccc2c(NS(=O)(=O)c3ccccc3Cl)cccc2c1Oc1ncccc1-c1ccnc(N[C@H]2CCCNC2)n1 [AMG-18]
 | 16.5 | -4.5 | 12 | -9 | -1 | CC#CC(=O)Nc1cccc2c(Oc3ncccc3-c3ccnc(N[C@H]4CCCNC4)n3)c(C)ccc12 [G-7658]
4.5 | 98.2 | 52 | 96.2 | 26.8 | 84.2 | O=c1cc(-c2n[nH]c3ncc(-c4c(F)cccc4F)cc23)nc(N2CCC(O)CC2)[nH]1 [G-9807]

Structure (SMILES) | inhibition at 1 µM (PERK) [%] | inhibition at 1 µM (Flt3) [%] | inhibition at 1 µM (Syk) [%] | inhibition at 1 µM (PRKAA1) [%] | inhibition at 1 µM (Brk) [%] | inhibition at 1 µM (EphA7) [%]
CCOC(=O)Nc1cccc2c(Oc3ncccc3-c3ccnc(N[C@H]4CCCNC4)n3)c(C)ccc12 [G-1749] | 9.9 | 8 | -2.5 | 0 | 1.8 | 9.5

Source: PMC7736581, “Activation of the IRE1 RNase through remodeling of the kinase front pocket by ATP-competitive ligands” (Nature Communications, 2020)
